Reference: ChEMBL document CHEMBL3352290, “Interactions with polynucleotides and antitumor activity of amidino and imidazolinyl substituted 2-phenylbenzothiazole mesylates” (Eur J Med Chem, 2014)

How the values were obtained:
Calf thymus DNA [1] = assay: Binding affinity to calf thymus DNA assessed as spectral changes at pH7 by UV/vis spectra; type: nucleic-acid assay; conditions: Bos taurus
[2] = Binding affinity to poly(dA-dT)2 (unknown origin) assessed as spectral changes at pH7 by UV/vis spectra
[3] = Binding affinity to poly A-poly U (unknown origin) assessed as spectral changes at pH7 by UV/vis spectra
[4] = Binding affinity to poly G-poly C (unknown origin) assessed as spectral changes at pH7 by UV/vis spectra
Calf thymus DNA [5] = assay: Binding affinity to calf thymus DNA assessed as binding constant at pH7 by UV/vis titration; type: nucleic-acid assay; conditions: Bos taurus
[6] = Binding affinity to poly(dA-dT)2 (unknown origin) assessed as binding constant at pH7 by UV/vis titration
[7] = Binding affinity to poly A-poly U (unknown origin) assessed as binding constant at pH7 by UV/vis titration
[8] = Binding affinity to poly G-poly C (unknown origin) assessed as binding constant at pH7 by UV/vis titration
Calf thymus DNA [9] = assay: Binding affinity to calf thymus DNA assessed as change in melting temperature at pH7; type: nucleic-acid assay; conditions: Bos taurus
[10] = Binding affinity to poly(dA-dT)2 (unknown origin) assessed as change in melting temperature at pH7
[11] = Binding affinity to poly A-poly U (unknown origin) assessed as change in melting temperature at pH7
[12] = Binding affinity to poly A (unknown origin) assessed as spectral changes by UV/vis spectra
[13] = Binding affinity to poly U (unknown origin) assessed as spectral changes by UV/vis spectra
[14] = Binding affinity to poly G (unknown origin) assessed as spectral changes by UV/vis spectra
[15] = Binding affinity to poly C (unknown origin) assessed as spectral changes by UV/vis spectra
[16] = Binding affinity to poly A (unknown origin) assessed as binding constant at pH7 by UV/vis titration
[17] = Binding affinity to poly U (unknown origin) assessed as binding constant at pH7 by UV/vis titration
[18] = Binding affinity to poly G (unknown origin) assessed as binding constant at pH7 by UV/vis titration
[19] = Binding affinity to poly C (unknown origin) assessed as binding constant at pH7 by UV/vis titration
[20] = Solubility of the compound in water at 22 degC; type: physicochemical
[21] = Antiproliferative activity against human MOLT4 cells assessed as growth inhibition after 72 hrs by MTT assay; type: functional; conditions: MOLT-4, 72 h
[22] = Antiproliferative activity against human HCT116 cells assessed as growth inhibition after 72 hrs by MTT assay; type: functional; conditions: HCT-116, 72 h
SW-620 = assay: Antiproliferative activity against human SW620 cells assessed as growth inhibition after 72 hrs by MTT assay; type: functional; conditions: SW-620, 72 h
MCF7 = assay: Antiproliferative activity against human MCF7 cells assessed as growth inhibition after 72 hrs by MTT assay; type: functional; conditions: MCF7, 72 h
[23] = Antiproliferative activity against human H460 cells assessed as growth inhibition after 72 hrs by MTT assay; type: functional; conditions: NCI-H460, 72 h
HeLa = assay: Antiproliferative activity against human HeLa cells assessed as growth inhibition after 72 hrs by MTT assay; type: functional
[24] = Antiproliferative activity against human MIAPaCa2 cells assessed as growth inhibition after 72 hrs by MTT assay; type: functional; conditions: MIA PaCa-2, 72 h
Mus musculus = assay: Acute oral toxicity in po dosed BALB/C mouse after 24 hrs; type: organism-based; parameters: unit not given here; conditions: in vivo

Row | SMILES | Activity (Calf thymus DNA [1]) | Activity [2] | Activity [3] | Activity [4] | log Ks (Calf thymus DNA [5]) | log Ks [6] | log Ks [7] | log Ks [8] | ΔTm (Calf thymus DNA [9]) | ΔTm [10] | ΔTm [11] | Activity [12] | Activity [13] | Activity [14] | Activity [15] | log Ks [16] | log Ks [17] | log Ks [18] | log Ks [19] | solubility [20] | other results
1 | Nc1ccc2nc(-c3ccc(C4=NCCN4)cc3)sc2c1 | 38.1% | 41.1% | 53.1% | 23.9% | 4.77 | 5.19 | 4.94 | 5.1 | 0 °C | 2.1 °C | 1.3 °C | 29.5% | 17.5% | 28.6% | 16.5% | 4.83 | 4.43 | 5.61 | 5.23 | – | –
2 | CS(=O)(=O)O.N=C(N)c1ccc(-c2nc3ccc(N)cc3s2)cc1 | – | – | – | – | – | – | – | – | – | – | – | – | – | – | – | – | – | – | – | 12500 µg/mL | GI50 [21]: 2800 nM; GI50 [22]: 1600 nM; GI50 (SW-620): 3500 nM; GI50 (MCF7): 1800 nM; GI50 [23]: 300 nM; GI50 (HeLa): 21000 nM; GI50 [24]: 9700 nM; LD50 (Mus musculus): 31.5
3 | Cl.Nc1ccc2nc(-c3ccc(C4=NCCN4)cc3)sc2c1.O | – | – | – | – | – | – | – | – | – | – | – | – | – | – | – | – | – | – | – | 600 µg/mL | –
4 | Nc1ccc(-c2nc3ccc(C4=NCCN4)cc3s2)cc1 | 37.1% | 42.5% | 55.5% | 30% | 5.23 | 5.41 | 5.44 | 4.89 | 0.7 °C | 2.7 °C | 3.9 °C | 22.2% | 18.3% | 30.8% | 16.3% | 5.6 | 4.77 | 6.46 | 5.11 | – | –
5 | Cl.N=C(N)c1ccc2nc(-c3ccc(N)cc3)sc2c1.O | – | – | – | – | – | – | – | – | – | – | – | – | – | – | – | – | – | – | – | 3300 µg/mL | –
6 | CS(=O)(=O)O.Nc1ccc(-c2nc3ccc(C4=NCCN4)cc3s2)cc1 | – | – | – | – | – | – | – | – | – | – | – | – | – | – | – | – | – | – | – | 130000 µg/mL | GI50 [21]: 3200 nM; GI50 [22]: 1400 nM; GI50 (SW-620): 1100 nM; GI50 (MCF7): 11300 nM; GI50 [23]: 500 nM; GI50 (HeLa): 16600 nM; GI50 [24]: 1400 nM; LD50 (Mus musculus): 175
7 | Cl.N=C(N)c1ccc(-c2nc3ccc(N)cc3s2)cc1.O | – | – | – | – | – | – | – | – | – | – | – | – | – | – | – | – | – | – | – | 700 µg/mL | –
8 | CS(=O)(=O)O.N=C(N)c1ccc2nc(-c3ccc(N)cc3)sc2c1.O | – | – | – | – | – | – | – | – | – | – | – | – | – | – | – | – | – | – | – | 1100 µg/mL | GI50 [21]: 2200 nM; GI50 [22]: 6100 nM; GI50 (SW-620): 4700 nM; GI50 (MCF7): 15100 nM; GI50 [23]: 3200 nM; GI50 (HeLa): 17500 nM; GI50 [24]: 8500 nM; LD50 (Mus musculus): 26.1
9 | CS(=O)(=O)O.Nc1ccc2nc(-c3ccc(C4=NCCN4)cc3)sc2c1 | – | – | – | – | – | – | – | – | – | – | – | – | – | – | – | – | – | – | – | 145000 µg/mL | GI50 [21]: 2300 nM; GI50 [22]: 1400 nM; GI50 (SW-620): 1200 nM; GI50 (MCF7): 6700 nM; GI50 [23]: 400 nM; GI50 (HeLa): 17900 nM; GI50 [24]: 1100 nM; LD50 (Mus musculus): 74.7
10 | N=C(N)c1ccc(-c2nc3ccc(N)cc3s2)cc1 | 42.2% | 37.5% | 45.5% | 25.3% | 4.48 | 5.04 | 4.5 | 4.4 | 0 °C | 2 °C | 1 °C | 24.3% | 14.7% | 33.5% | 13% | 3.99 | 5.15 | 4.6 | 4.19 | – | –
11 | N=C(N)c1ccc2nc(-c3ccc(N)cc3)sc2c1 | 45.6% | 39.8% | 71.6% | 20.3% | 4.46 | 5.09 | 4.55 | 4.5 | 0.7 °C | 2.8 °C | 1.3 °C | 23% | 16.3% | 23.4% | 13.6% | 4.3 | 4.81 | 4.85 | 4.57 | – | –
12 | Cl.Nc1ccc(-c2nc3ccc(C4=NCCN4)cc3s2)cc1.O | – | – | – | – | – | – | – | – | – | – | – | – | – | – | – | – | – | – | – | 200 µg/mL | –
